Common to all, as to assay type: cell-based
The target in assay [1] is T1, human AR (full-length) (Homo sapiens, UniProt P10275).
T1 construct: expression vectors encoding full-length steroid receptors: pcDNA3-hAR and pcDNA3-hGR; host or cells: U2OS
T1 sequence (P10275 1-920): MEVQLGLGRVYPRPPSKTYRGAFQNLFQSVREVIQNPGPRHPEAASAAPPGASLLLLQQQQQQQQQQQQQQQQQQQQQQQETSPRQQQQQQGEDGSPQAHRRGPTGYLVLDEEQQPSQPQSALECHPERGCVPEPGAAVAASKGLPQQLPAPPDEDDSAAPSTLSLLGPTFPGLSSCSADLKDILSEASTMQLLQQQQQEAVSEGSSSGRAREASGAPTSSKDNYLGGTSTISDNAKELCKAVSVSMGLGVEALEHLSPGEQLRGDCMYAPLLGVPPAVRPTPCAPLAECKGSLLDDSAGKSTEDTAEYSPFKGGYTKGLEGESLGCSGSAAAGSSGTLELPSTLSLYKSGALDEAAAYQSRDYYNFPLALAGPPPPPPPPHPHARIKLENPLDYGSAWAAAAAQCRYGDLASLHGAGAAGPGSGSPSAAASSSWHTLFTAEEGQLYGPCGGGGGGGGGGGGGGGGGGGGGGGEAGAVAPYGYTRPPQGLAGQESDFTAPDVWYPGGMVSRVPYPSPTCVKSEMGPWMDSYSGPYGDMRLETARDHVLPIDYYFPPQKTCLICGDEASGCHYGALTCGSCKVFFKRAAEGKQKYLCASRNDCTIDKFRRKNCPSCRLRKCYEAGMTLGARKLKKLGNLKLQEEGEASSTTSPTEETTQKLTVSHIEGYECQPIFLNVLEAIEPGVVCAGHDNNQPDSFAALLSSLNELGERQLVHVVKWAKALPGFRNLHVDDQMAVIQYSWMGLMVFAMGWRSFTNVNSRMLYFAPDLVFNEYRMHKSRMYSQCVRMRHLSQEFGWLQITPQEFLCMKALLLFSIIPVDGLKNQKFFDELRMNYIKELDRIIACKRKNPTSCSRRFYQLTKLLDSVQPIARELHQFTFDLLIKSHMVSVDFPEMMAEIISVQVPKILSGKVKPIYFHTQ
Nature of the assay: U2OS-AR/MMTV luciferase reporter cell line (full-length receptor).

The target in assay [2] is T1, human AR (full-length). Nature of the assay: U2OS-AR/3xGRE luciferase reporter cell line (full-length receptor).
In assay [3] the target is T2, AR-LBD fused to Gal4-DBD (co-expressed with full-length AR) (Homo sapiens, UniProt P10275).
T2 construct: the following primers were used for the amplification of the LBD region; expressed in transfected cells; host or cells: U2OS
T2 sequence (P10275 669-900 limits assumed): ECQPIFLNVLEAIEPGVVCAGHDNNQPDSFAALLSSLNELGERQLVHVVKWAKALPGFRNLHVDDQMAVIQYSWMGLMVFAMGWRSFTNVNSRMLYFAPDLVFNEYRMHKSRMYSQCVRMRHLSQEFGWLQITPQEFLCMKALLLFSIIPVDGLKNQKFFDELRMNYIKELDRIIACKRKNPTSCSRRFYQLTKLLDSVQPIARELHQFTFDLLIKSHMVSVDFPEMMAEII
Nature of the assay: U2OS-AR-LBD/9xGal4UAS luciferase reporter cell line.

A further assay deals with T3, MR-LBD fused to Gal4-DBD (Homo sapiens, UniProt P08235).
T3 construct: MR-LBD was cloned by RT-PCR from total RNA isolated from HEK293 cells; expressed in transfected cells; host or cells: U2OS
T3 sequence (P08235 726-964 limits assumed): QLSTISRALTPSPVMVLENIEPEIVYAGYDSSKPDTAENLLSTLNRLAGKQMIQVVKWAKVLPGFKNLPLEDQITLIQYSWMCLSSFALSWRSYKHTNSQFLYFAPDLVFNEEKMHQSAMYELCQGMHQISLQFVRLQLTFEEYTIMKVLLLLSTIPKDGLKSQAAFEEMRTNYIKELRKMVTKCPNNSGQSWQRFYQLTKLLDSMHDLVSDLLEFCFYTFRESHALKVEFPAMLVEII
Nature of the assay: U2OS-MR-LBD/9xGal4UAS luciferase reporter cell line. The note with it: read-out: Log EC50 (converted). In general terms: Reporter assays use an easily measured gene product as a stand-in for the process of interest.

Assay [4] has as its target T4, ERβ-LBD fused to Gal4-DBD (Homo sapiens, UniProt Q92731).
T4 construct: region comprising ERβ-LBD and a piece of the hinge region; expressed in transfected cells; host or cells: U2OS
Nature of the assay: U2OS-ERβ-LBD/9xGal4UAS luciferase reporter cell line. The settings on record: read-out: Log EC50 (converted).

Another assay deals with T5, human ERβ (full-length) (Homo sapiens, UniProt Q92731).
T5 construct: expression vectors encoding full-length steroid receptors: pcDNA3-hERα and pcDNA3-ERβ; expressed in transfected cells; host or cells: U2OS
Nature of the assay: U2OS-ERβ/3xERE luciferase reporter cell line (full-length receptor). The note with it: read-out: Log EC50 (converted).

For another assay, the target named is T6, human MR (full-length) (Homo sapiens, UniProt P08235).
T6 construct: expression vectors encoding full-length steroid receptors: pcDNA3-hAR, pcDNA3-hGR and pcDNA3-hMR; expressed in transfected cells; host or cells: U2OS
T6 sequence (P08235 1-984): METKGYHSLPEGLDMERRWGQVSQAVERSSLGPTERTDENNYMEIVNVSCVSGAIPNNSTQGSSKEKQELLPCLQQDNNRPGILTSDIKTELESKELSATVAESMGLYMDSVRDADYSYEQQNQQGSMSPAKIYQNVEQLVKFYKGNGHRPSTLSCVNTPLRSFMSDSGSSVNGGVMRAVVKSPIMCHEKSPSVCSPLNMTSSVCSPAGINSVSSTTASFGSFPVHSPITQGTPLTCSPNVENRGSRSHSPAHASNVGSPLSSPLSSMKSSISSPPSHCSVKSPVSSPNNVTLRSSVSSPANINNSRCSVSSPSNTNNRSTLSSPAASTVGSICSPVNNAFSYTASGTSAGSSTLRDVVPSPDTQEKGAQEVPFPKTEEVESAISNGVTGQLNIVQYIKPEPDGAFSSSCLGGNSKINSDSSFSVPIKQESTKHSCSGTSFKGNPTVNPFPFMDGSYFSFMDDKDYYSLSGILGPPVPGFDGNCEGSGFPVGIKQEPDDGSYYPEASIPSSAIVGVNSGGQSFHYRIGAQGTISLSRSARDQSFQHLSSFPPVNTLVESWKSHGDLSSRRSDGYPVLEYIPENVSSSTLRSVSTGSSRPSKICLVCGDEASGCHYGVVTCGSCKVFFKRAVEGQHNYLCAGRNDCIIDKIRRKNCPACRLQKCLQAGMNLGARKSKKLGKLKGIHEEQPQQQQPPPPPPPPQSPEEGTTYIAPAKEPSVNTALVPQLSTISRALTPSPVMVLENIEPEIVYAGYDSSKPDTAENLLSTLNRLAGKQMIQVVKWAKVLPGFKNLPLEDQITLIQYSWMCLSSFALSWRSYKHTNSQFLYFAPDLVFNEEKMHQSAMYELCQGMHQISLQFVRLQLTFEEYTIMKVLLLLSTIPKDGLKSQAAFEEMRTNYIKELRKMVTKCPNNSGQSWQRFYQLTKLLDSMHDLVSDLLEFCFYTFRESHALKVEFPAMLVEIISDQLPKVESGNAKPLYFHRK
Nature of the assay: U2OS-MR/MMTV luciferase reporter cell line (full-length receptor). The note with it: read-out: Log EC50 (converted).

For a further assay, the target named is T7, PR-LBD fused to Gal4-DBD (Homo sapiens, UniProt P06401).
T7 construct: PR-LBD region was PCR amplified using the following primer combination; host or cells: U2OS
T7 sequence (P06401 679-913 limits assumed): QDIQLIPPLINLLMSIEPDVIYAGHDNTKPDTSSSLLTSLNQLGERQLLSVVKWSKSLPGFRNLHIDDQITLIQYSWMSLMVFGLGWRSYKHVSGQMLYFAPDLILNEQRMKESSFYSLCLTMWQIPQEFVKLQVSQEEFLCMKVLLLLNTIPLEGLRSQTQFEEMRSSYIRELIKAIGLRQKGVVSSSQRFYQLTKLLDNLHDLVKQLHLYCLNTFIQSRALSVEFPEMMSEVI
Nature of the assay: U2OS-PR-LBD/9xGal4UAS luciferase reporter cell line.

T4 sequence (Q92731 264-498 limits assumed): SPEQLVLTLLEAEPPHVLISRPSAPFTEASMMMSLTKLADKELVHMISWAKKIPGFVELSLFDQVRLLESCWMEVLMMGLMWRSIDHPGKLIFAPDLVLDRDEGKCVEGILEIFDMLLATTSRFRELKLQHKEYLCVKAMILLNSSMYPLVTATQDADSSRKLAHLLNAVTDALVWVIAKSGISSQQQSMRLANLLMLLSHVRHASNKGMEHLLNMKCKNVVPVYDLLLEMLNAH
T5 sequence (Q92731 whole entry): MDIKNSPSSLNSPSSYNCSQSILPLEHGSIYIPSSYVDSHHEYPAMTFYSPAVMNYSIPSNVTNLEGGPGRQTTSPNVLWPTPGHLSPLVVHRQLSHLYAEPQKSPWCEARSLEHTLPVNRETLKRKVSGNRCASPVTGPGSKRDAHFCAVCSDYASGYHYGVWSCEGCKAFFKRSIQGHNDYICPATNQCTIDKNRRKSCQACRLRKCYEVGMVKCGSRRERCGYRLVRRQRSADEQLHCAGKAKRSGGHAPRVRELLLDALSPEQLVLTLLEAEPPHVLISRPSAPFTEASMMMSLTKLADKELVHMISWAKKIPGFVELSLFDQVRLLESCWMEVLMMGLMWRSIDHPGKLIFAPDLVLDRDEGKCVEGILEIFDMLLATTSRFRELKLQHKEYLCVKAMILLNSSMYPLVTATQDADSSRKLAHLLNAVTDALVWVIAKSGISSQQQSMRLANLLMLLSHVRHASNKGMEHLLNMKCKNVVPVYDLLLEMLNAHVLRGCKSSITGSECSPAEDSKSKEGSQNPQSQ

Usually EC50 stands for the midpoint of the concentration-response curve. The term IC50 denotes the point on the concentration scale where inhibition reaches its midpoint. On to `C[C@]12CCC(=O)C=C1CC[C@@H]1[C@@H]2[C@@H](O)C[C@@]2(C)[C@H]1CC[C@]2(O)C(=O)CO` [Cortisol, cortisol], for which the EC50 on human AR (full-length) [1] was above 10 µM; at human AR (full-length) [2], above 10 µM; in assay [3], above 10 µM; on MR-LBD fused to Gal4-DBD it was 0.0112 µM; in assay [4], above 10 µM; on human ERβ (full-length), above 10 µM. Further, the EC50 was 0.00631 µM at human MR (full-length) and 6.17 µM at PR-LBD fused to Gal4-DBD (read-out: Log EC50 (converted)). Moreover, the IC50 on human AR (full-length) [1] is above 10 µM; in assay [3], above 10 µM; on PR-LBD fused to Gal4-DBD (antagonist mode, PR-LBD/9xGal4UAS, log10 of molar IC50, mean ± SEM, read-out: Log IC50 (converted)), above 10 µM.
